The values that follow come from PubChem BioAssay AID179 (DTP/NCI, 2004).

“And” between values parts separate entries of the source, which are not always exact repeats. Equal entries are not always repeated. The source made the active and inactive calls.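 Rule for the calls: active = compounds giving half or more protection of infected cells from virus-caused growth loss, again on retest; inactive = the rest.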 A value given as a limit tells only on which side of the number the result lay.

The test system of this experiment is CEM cells HIV-1 protection, formazan growth assay. Put plainly: NCI AIDS Antiviral Assay. The following applies: for IC50: measured here: growth of uninfected CEM cells. The gist of the method:
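Soluble formazan readout of cell growth; CEM cells ± HIV-1; 5 drug concs. ≥50% protection → retest; ≥50% again = moderately active; reproducible 100% = confirmed active.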

As usually defined, the EC50 is the concentration giving half of the maximal effect. The term IC50 denotes the concentration that inhibits the measured activity by half. Higher therefore signals weaker potency. As to `CN(C)C=Nc1ccn(CCO)c(=O)n1`, the EC50 is > 1200 µM and the IC50 is > 1200 µM.
For the molecule `CC1COS(=O)(=O)CS(=O)(=O)O1` (configuration not stated), the EC50 was > 1150 µM and the IC50 is > 1150 µM.
Regarding `CC1C(c2ccccc2)NC(c2ccccc2)CC1(N)C#N` (configuration not stated), the EC50 is > 123 µM and the half-inhibitory concentration (IC50) was > 123 µM.
For the molecule `O=C(O)[C@@H](NS(=O)(=O)c1ccc([N+](=O)[O-])cc1)c1ccccc1`, the result was inactive.
Consider `CC[n+]1c(/C=C/c2cc(C(=O)OC)n3c2sc2ccccc23)sc2ccccc21`, for which the EC50 was > 200 µM and the IC50 was 11 µM.
In the case of `C=C(C)CCC[C@@H](C)C1CCC2(C)[C@@H]3CCC4C(C)(C)[C@@H](O)CC[C@@]45C[C@@]35CC[C@]12C` (some centres not stated), the EC50 was > 200 µM and the concentration for half-maximal inhibition (IC50) came to 46.8 µM.
For the molecule `COC1N(C2CC(F)C(CO)O2)C(=O)NC(=O)C1(C)Cl` (configuration not stated), the EC50 is 14.5 µM and 25.1 µM; the IC50 amounted to 794 µM.
For `CN(/N=C/c1ccccc1C(=O)O)C1=NCCCCN1`, the EC50 was > 200 µM and the IC50 was > 200 µM.
Consider `CC12CCC(=O)N1c1cccnc1N2` (configuration not stated), for which the EC50 was > 1320 µM and the IC50 is 1120 µM.
In the case of `N=C1/C(=C/c2ccc(F)cc2)C(=O)N=C2SC=NN12`, the EC50 is > 200 µM and the IC50 was > 200 µM.
Regarding `O=C1CCC(=O)N1N1C(=O)CCC1=O`, the EC50 is > 200 µM and the half-maximal inhibitory concentration (IC50) is > 200 µM.
With `CO/C=C/CCCNCc1ccccc1`, the EC50 was > 457 µM and the IC50 was > 457 µM.
As to `ClC[Si]12OCCN(CCO1)CCO2`, the result was inactive.
Take `COc1ccc(Br)c(CCC(CO)C2=CCC3(CC2)OCCO3)c1` (configuration not stated): the EC50 was 15.8 µM and the IC50 is 87.1 µM.
On to `COc1ccc2c(c1)CCC1=CC3(CCC12C)SCCS3` (configuration not stated), for which the EC50 was > 58.9 µM and the IC50 came to 10.2 µM.
The corresponding values for `CCOC(=O)c1nc2ccccc2nc1NCc1ccc(OC)cc1` are > 138 µM and 70.8 µM.
As for `O=C1CC(c2ccc[nH]2)=NN1c1ccccc1`, the EC50 was > 200 µM and the IC50 was 83.2 µM.
Take `O=C(Oc1ccccc1)c1cccc(C(=O)Oc2ccccc2)c1`: the EC50 was > 16.2 µM and the IC50 is > 16.2 µM.
In the case of `NC(=O)c1cc(N(CCO)CCO)c([N+](=O)[O-])cc1[N+](=O)[O-]`, the EC50 is > 200 µM and the IC50 was > 200 µM.
With `CC(=O)OCCOCn1c2c(c(=S)[nH]c1=O)CCC2`, the EC50 is > 200 µM and the IC50 was > 200 µM.
As for `N#CCC(=O)NN=C1CCCCC1`, the EC50 is > 200 µM and the IC50 is > 200 µM.
For the molecule `O=C(Nc1cccc(C(=O)Nc2ccc(C3=NCCN3)cc2)c1)c1ccc(C2=NCCN2)cc1`, the EC50 was 9.12 µM and the concentration for half-maximal inhibition (IC50) is 155 µM.
Regarding `CC(C)(C)c1cc2c(O)c(c1)C(c1ccccc1)c1cc(C(C)(C)C)cc(c1O)Cc1cc(C(C)(C)C)cc(c1O)C(c1ccccc1)c1cc(C(C)(C)C)cc(c1O)C2` (configuration not stated), the EC50 is > 50.1 µM and the IC50 is > 50.1 µM.
Turning to `CCOc1c(OC)cc(-c2nc3n(n2)C(=O)C(CC)S3)cc1OC` (configuration not stated), the EC50 is > 200 µM and the half-inhibitory concentration (IC50) was > 200 µM.
For the molecule `COc1cccc2c1OC1c3ccccc3OCC1C2` (configuration not stated), the EC50 is > 200 µM and the half-inhibitory concentration (IC50) is 97.7 µM.
Take `CC1=C(C(=O)NNC(=O)C[N+](C)(C)C)CC(C(=O)NNC(=O)C[N+](C)(C)C)=C(C)N1`: the EC50 is > 200 µM and the IC50 was determined as 95.5 µM.
Regarding `CC(=O)OC(C)(C)CCC(=O)[C@](C)(O)[C@H]1[C@H](O)C[C@@]2(C)[C@@H]3CC=C4C(C)=C(OC5OC(CO)C(O)C(O)C5O)C(=O)C[C@@H]4[C@]3(C)C(=O)C[C@]12C` (some centres not stated), the EC50 was > 200 µM and the 50% inhibitory concentration (IC50) is > 200 µM.
As for `O=S(O)CCCCSSCc1ccccc1CSSCCCCS(=O)O`, the result was inactive.
Regarding `CCOC(=O)CNC(=O)C(C)NC(=O)C(NC(=O)CC(c1ncc[nH]1)c1ncc[nH]1)C(C)CC` (configuration not stated), the EC50 is > 100 µM and the half-maximal inhibitory concentration (IC50) was > 100 µM.
Turning to `CCOC(=O)[C@@H]1ON2O[C@H](OC3CCCCC3c3ccccc3)C[C@H]3OC(=O)[C@@H]1C32` (some centres not stated), the EC50 was > 200 µM and the IC50 was 117 µM.
Consider `CC(=O)SC(SC(C)=O)SC(C)=O`, for which the EC50 is > 209 µM and the half-inhibitory concentration (IC50) stood at 155 µM.
In the case of `COc1ccc(-c2csc3c2[N+]2(C)C=CC=C2C3N2CCCC2)cc1` (configuration not stated), the EC50 is > 200 µM and the 50% inhibitory concentration (IC50) is 8.51 µM.
For the molecule `Cc1ccc(-n2cc(-c3ccc(Cl)cc3)c(C#N)c2N)cc1`, the EC50 was > 200 µM and the IC50 worked out at 22.4 µM.
Turning to `CC(C)Nc1n[nH]c(=O)n1C(C)C`, the EC50 is > 200 µM and the 50% inhibitory concentration (IC50) was > 200 µM.
As for `COc1ccc(NC(C)=O)cc1N1C(=O)/C(=C\c2cc(OC)c(OC)c(OC)c2)S(=O)(=O)C1c1ccccc1` (configuration not stated), the EC50 was > 200 µM and the IC50 is 91.2 µM.
For the molecule `CN(CC1NCCCC1O)C12CC3CC(CC(C3)C1)C2` (configuration not stated), the EC50 is > 891 µM and the IC50 was > 891 µM.
As for `O=c1c2cc3c(=O)n4c(cc(-c5ccccc5)c5cc(Cl)ccc54)nc3cc2nc2cc(-c3ccccc3)c3cc(Cl)ccc3n12`, the EC50 is > 100 µM and the IC50 is > 100 µM.
Take `c1ccc2c(c1)nnn2CNc1ccc(N2CCOCC2)cc1`: the EC50 was > 200 µM and the 50% inhibitory concentration (IC50) amounted to 51.3 µM.
Turning to `O=C(NN=C1CCN(Cc2ccccc2)CC1)C(O)(c1ccccc1)c1ccccc1`, the EC50 is > 200 µM and the IC50 is > 200 µM.
With `N=CCCN(CCC=N)c1ccc(/C=C2\CN(NC(=O)c3ccc(Cl)cc3)C(c3ccccc3)=N2)cc1`, the EC50 was > 70.8 µM and the half-maximal inhibitory concentration (IC50) was > 70.8 µM.
Regarding `CNC(=S)N/N=C(\C(=N/NC(=S)NC)c1ccccn1)c1ccccn1`, the EC50 is > 0.2 µM and the IC50 is 0.0513 µM.
On the same counts, the results for `Cc1ccnc2c1c(=O)c1ccccc1n2C` are > 151 µM and 41.7 µM.
The corresponding values for `NNC(=O)C1C2c3ccccc3C(c3ccccc32)C1C(=O)NN` (configuration not stated) are > 200 µM and > 200 µM.
Take `COC(=O)C(N)C(C)c1c[nH]c2ccccc12` (configuration not stated): the EC50 is > 200 µM and the IC50 is > 200 µM.
Consider `CC1=CC[C@H](C[C@H](C#CCCCC2OCCO2)O[Si](C(C)C)(C(C)C)C(C)C)C(=O)CC1`, for which the EC50 is > 200 µM and the IC50 came to 9.77 µM.
For `CN(C)c1cc2c3ccccc3ccc2c2ccccc12`, the EC50 was > 7.41 µM and the half-inhibitory concentration (IC50) was > 7.41 µM.
Regarding `CC1NC(=O)C2=C1C(N)=NC(=O)C2` (configuration not stated), the EC50 was > 1000 µM and the IC50 was > 1000 µM.
Consider `Cc1cc2c(cc1C)NS(=O)(=O)N2`, for which the EC50 is > 447 µM and the IC50 is 9.77 µM.
On the same counts, the results for `O=C(/C=C/c1ccccc1)Oc1ccc(C(=O)/C=C/c2ccccc2)cc1` are > 151 µM and 6.76 µM.
With `O=C(OCCc1ccccc1)c1ccc2cc(O)c(O)cc2c1`, the EC50 is > 31.6 µM and the half-maximal inhibitory concentration (IC50) stood at 12.9 µM.
As for `CC1(n2nc(-c3ccccc3)n(-c3ccccc3)c2=O)CSC1`, the EC50 was > 41.7 µM and the 50% inhibitory concentration (IC50) was > 41.7 µM.
For `O=C(CC(C(=O)c1ccsc1)c1cccs1)c1ccccc1` (configuration not stated), the EC50 is > 200 µM and the IC50 amounted to 49 µM.
On the same counts, the results for `COc1ccc(-c2oc3c(OC)c(OC)cc(O)c3c(=O)c2OC)cc1` are > 200 µM and > 200 µM.
Take `CS(=O)(=O)Nc1ccc2ccccc2c1`: the EC50 is > 200 µM and the IC50 came out at 158 µM.
The corresponding values for `c1cncc(C2c3[nH]c4ccccc4c3CCN2CCN2CCCCC2)c1` (configuration not stated) are > 3.98 µM and > 3.98 µM.
On to `COc1ccccc1NC(=O)C1=C(C)NC(C)=C(C(=O)Nc2ccccc2OC)C1c1ccc([N+](=O)[O-])cc1`, for which the EC50 is > 9.77 µM and the 50% inhibitory concentration (IC50) was > 9.77 µM.
Take `CC(=O)N/N=C/c1ccc(N(C)C)cc1`: the EC50 is > 200 µM and the IC50 is > 200 µM.
Consider `O=[N+]([O-])c1ccc(C=Cc2ccccc2)cc1.[C-]#[O+].[C-]#[O+].[C-]#[O+].[Cr]`, for which the outcome was inactive.
Turning to `CCOC(=O)C1(C(=O)OCC)OC(C)=NC1(C(=O)OC)C(=O)OC`, the EC50 was > 200 µM and the IC50 was > 200 µM.
Take `CC(=O)N[C@]1(C)CCC2C[C@H]1C(C)=NC2(C)C`: the EC50 was > 1050 µM and the IC50 was > 1050 µM.
Consider `Oc1ccccc1CNCc1nc2ccccc2[nH]1`, for which the EC50 was > 200 µM and the IC50 is 74.1 µM.
The corresponding values for `CC(=O)C(N1CCCCC1)C(O)(C(F)(F)F)C(F)(F)F` (configuration not stated) are > 200 µM and 91.2 µM.
In the case of `CCc1ccc(C2=C(O)C(=O)C(c3ccc(CC)cc3)=C(O)C2=O)cc1`, the EC50 is > 70.8 µM and the IC50 amounted to 9.77 µM.
On to `O=[N+]([O-])c1ccccc1C1N2CCCCC2[C@@H]2c3[nH]c4ccccc4c3CCN12` (some centres not stated), for which the EC50 was > 18.6 µM and the IC50 was > 18.6 µM.
In the case of `N#CCCC1C(=O)CCCC1=O`, the EC50 was > 200 µM and the 50% inhibitory concentration (IC50) was > 200 µM.
For `CCN(CCC#N)C(=O)Nc1ccccc1`, the EC50 was > 200 µM and the IC50 is > 200 µM.
With `CC1CN(CCO)CC(C)O1` (configuration not stated), the EC50 is > 1580 µM and the IC50 was > 1580 µM.
Take `CC1OC(CC(=O)O)CC2=C1C(=O)c1c(O)cccc1C2=O` (configuration not stated): the EC50 is > 120 µM and the IC50 is 0.0447 µM.
Regarding `COC1=CC(=O)c2c(O)c3c(c(O)c2C1=O)C[C@](C)(O)C[C@@H]3O`, the result was inactive.
As to `Nc1ccccc1-c1nc2ccncc2[nH]1`, the EC50 was > 851 µM and the IC50 came out at 302 µM.
Consider `Cc1ccccc1S(=O)(=O)Nn1cnc2ccc(S(=O)(=O)Nc3ccc(Cl)cc3)cc2c1=O`, for which the outcome was inactive.
Consider `CCOC(=O)c1ccc(CS(=O)(=O)c2ccc(OC)cc2)cc1`, for which the EC50 is > 56.2 µM and the half-inhibitory concentration (IC50) was > 56.2 µM.
`CN(C)Cc1cc(N=Nc2ccc(Cl)c(Cl)c2)ccc1O`: the EC50 was > 200 µM and the concentration for half-maximal inhibition (IC50) amounted to 18.6 µM.
On to `O=C(O)CNC(=O)c1ccccc1SC(=O)CCCC[n+]1ccccc1`, for which the EC50 is > 200 µM and the IC50 was > 200 µM.
